Laboratory results taken from patent US7964751B2, “Enantiomers of amino-phenyl-acetic acid octadec-9-(Z) enyl ester, their salts and their uses” (Yeda Research and Development Co. Ltd., priority 2007, dated 2011).
Where a name gives a salt, the structure may show the parent alone.

Experiments:
[1] = test system: Delayed type hypersensitivity (DTH) skin inflammation in Balb/c mice; experiment: Delayed type hypersensitivity (DTH), oxazolone-induced mouse ear swelling test; assay type: in vivo; settings: for % Inflamation (Diff/Base line * 100) / % Inhibition / Difference mm: 24 hours; for inhibition of inflammation: DTH model
Experimental: Delayed type hypersensitivity (DTH), a localized inflammatory reaction induced by cytokines secreted by certain TH cells when they encounter certain types of antigens, is an established experimental model for skin inflammation.
DTH reactions were induced in the abdomen skin of 8 week old female Balb/c mice, weighing 20 g each.
The mice were sensitized first by topical application of 100 μl of a 5% Oxazolone (4-Ethoxymethylene-2-phenyl-2-oxazolin-5-one; Sigma) solution in ethanol/acetone (3:1, vol/vol) to a shaved abdomen. The mice were anesthetized with I.P. injection of 0.2 ml/mouse of a stock solution prepared from Ketamine (1 ml)+Xylazine (1 ml)+Saline (8 ml). The anesthesia was done for the shaving of the abdomen and the first sensitization.
After 4 days the mice were challenged for the second time using 1% Oxazolone (4-Ethoxymethylene-2-phenyl-2-oxazolin-5-one; Sigma) solution in ethanol/acetone (3:1, vol/vol). The solution was pipetted onto the shaved abdomen of the mice.
Six days after the first sensitization, the right ear of each mouse was challenged with topical application of 20 μl (10 μl at each surface of the ear) of a 1% Oxazolone solution in olive oil/acetone (3:1, vol/vol).
Treatment was given 30 min after the elicitation by applying 40 μl (20 μl at each surface of the ear) of treatment compounds, as described before, on the challenged ear of each mouse.
After 24 hours, the extent of inflammation was measured using the mouse ear swelling test (caliper) and the percent inhibition induced by the treatment was quantified.
The experiment includes a positive control group which was administered Dexamethasone 2 mg/mouse, one untreated group as a negative control and one naïve group.
Baseline measurements of the ear were conducted before the first sensitization.

[2] = Racemization in various solvents, S-isomer measured by chiral HPLC; assay type: physicochemical
Experimental: A sample of (R)-Amino-phenyl-acetic acid octadec-9-(Z)-enyl ester HCl (Compound 2) was suspended in various solvents (2 mg/ml). The compound was 99.7% enantiomerically pure as determined by chiral HPLC. The presence of the S-isomer (compound 1) was measured after various time points. The amount of racemization in terms of percent (relative to compound 1+compound 2) is detailed in Table 2 below.
The presence of the S-isomer (Compound 1) was measured by chiral HPLC after various time points. The amount in terms of percent (relative to compound 1+compound 2) is detailed in the table below.

pKa of the compound = assay type: physicochemical
[3] = 5 mg/ml, 0.2 mg/mouse topical on challenged ear
[4] = 8 mg/ml, 0.32 mg/mouse topical on challenged ear
[5] = 12.5 mg/ml, 0.5 mg/mouse topical on challenged ear
[6] = 25 mg/ml, 1 mg/mouse topical on challenged ear
[7] = positive control, 50 mg/ml, 2 mg/mouse

With `CCCCCCCC/C=C\CCCCCCCCOC(=O)C(N)c1ccccc1.Cl` (racemic) [Racemic, aminophenylacetic acid octadec-(Z)-9-enyl ester HCl, reference compound] the “% Inflamation (Diff/Base line * 100)” value [1, 3] was 69.43%, the “% Inhibition” value [1, 3] was 38.46% and the Difference mm [1, 3] was 0.18 mm. The “% Inflamation (Diff/Base line * 100)” value [1, 4] was 73.53%, the “% Inhibition” value [1, 4] was 39.98% and the Difference mm [1, 4] was 0.17 mm. The “% Inflamation (Diff/Base line * 100)” value [1, 5] was 43.08%, the “% Inhibition” value [1, 5] was 60.14% and the Difference mm [1, 5] was 0.11 mm. The “% Inflamation (Diff/Base line * 100)” value [1, 6] was 13.68%, the “% Inhibition” value [1, 6] was 87.76% and the Difference mm [1, 6] was 0.04 mm. For the same compound, the inhibition of inflammation [1] was “provide inhibition of inflammation”.
With `CCCCCCCC/C=C\CCCCCCCCOC(=O)[C@@H](N)c1ccccc1` [Compound 1, (S)-Amino-phenyl-acetic acid octadec-9-(Z)-enyl ester HCl] the “% Inflamation (Diff/Base line * 100)” value [1, 3] was 87.18%, the “% Inhibition” value [1, 3] was 20.75% and the Difference mm [1, 3] was 0.23 mm. The “% Inflamation (Diff/Base line * 100)” value [1, 4] was 34.76%, the “% Inhibition” value [1, 4] was 68.53% and the Difference mm [1, 4] was 0.09 mm. For the same compound, the “% Inflamation (Diff/Base line * 100)” value [1, 5] was 25.84%, the “% Inhibition” value [1, 5] was 77.86% and the Difference mm [1, 5] was 0.06 mm. For the same compound, the “% Inflamation (Diff/Base line * 100)” value [1, 6] was 17.70%, the “% Inhibition” value [1, 6] was 83.68% and the Difference mm [1, 6] was 0.05 mm. For the same compound, the inhibition of inflammation [1] was “provide inhibition of inflammation”.
In the case of `CCCCCCCC/C=C\CCCCCCCCOC(=O)[C@H](N)c1ccccc1` [Compound 2, (R)-Amino-phenyl-acetic acid octadec-9-(Z)-enyl ester HCl], the “Percent racemization (relative to compound 1 + compound 2)” value ([2]; 0.1 N HCl, 2 mg/ml, 0 hours) is reported as 0.4%, the “Percent racemization (relative to compound 1 + compound 2)” value ([2]; 0.1 N HCl, 2 mg/ml, 1 hour) is reported as 0.4% and the “Percent racemization (relative to compound 1 + compound 2)” value ([2]; 0.1 N HCl, 2 mg/ml, 2 hours) is reported as 0.4%. The “Percent racemization (relative to compound 1 + compound 2)” value ([2]; 0.1 N HCl, 2 mg/ml, 3 hours) was 0.3%, the “Percent racemization (relative to compound 1 + compound 2)” value ([2]; 0.1 N HCl, 2 mg/ml, 4 hours) was 0.3% and the “Percent racemization (relative to compound 1 + compound 2)” value ([2]; 0.1 N HCl, 2 mg/ml, 21 hours) was 0.3%. For the same compound, the “Percent racemization (relative to compound 1 + compound 2)” value ([2]; 0.9% NaCl solution, 2 mg/ml, 0 hours) was 0.9%, the “Percent racemization (relative to compound 1 + compound 2)” value ([2]; 0.9% NaCl solution, 2 mg/ml, 1 hour) was 1.2% and the “Percent racemization (relative to compound 1 + compound 2)” value ([2]; 0.9% NaCl solution, 2 mg/ml, 2 hours) was 2.3%. For the same compound, the “Percent racemization (relative to compound 1 + compound 2)” value ([2]; 0.9% NaCl solution, 2 mg/ml, 3 hours) was 3.3%, the “Percent racemization (relative to compound 1 + compound 2)” value ([2]; 0.9% NaCl solution, 2 mg/ml, 4 hours) was 3.0% and the “Percent racemization (relative to compound 1 + compound 2)” value ([2]; 0.9% NaCl solution, 2 mg/ml, 21 hours) was 6.0%. For the same compound, the “S-isomer (Compound 1) amount in percent (relative to compound 1+compound 2)” value ([2]; 1% Acetic acid, pH 2.8, 2 mg/ml, 0 hr) was 0.7%, the “S-isomer (Compound 1) amount in percent (relative to compound 1+compound 2)” value ([2]; 1% Acetic acid, pH 2.8, 2 mg/ml, 1 hr) was 2.0% and the “S-isomer (Compound 1) amount in percent (relative to compound 1+compound 2)” value ([2]; 1% Acetic acid, pH 2.8, 2 mg/ml, 2 hr) was 3.6%. For the same compound, the “S-isomer (Compound 1) amount in percent (relative to compound 1+compound 2)” value ([2]; 1% Acetic acid, pH 2.8, 2 mg/ml, 3 hr) was 5.2%, the “S-isomer (Compound 1) amount in percent (relative to compound 1+compound 2)” value ([2]; 1% Acetic acid, pH 2.8, 2 mg/ml, 4 hr) was 6.6% and the “S-isomer (Compound 1) amount in percent (relative to compound 1+compound 2)” value ([2]; Acetate Buffer, pH 3.5, 2 mg/ml, 0 hr) was 0.3%. For the same compound, the “S-isomer (Compound 1) amount in percent (relative to compound 1+compound 2)” value ([2]; Acetate Buffer, pH 3.5, 2 mg/ml, 1 hr) was 3.3%, the “S-isomer (Compound 1) amount in percent (relative to compound 1+compound 2)” value ([2]; Acetate Buffer, pH 3.5, 2 mg/ml, 2 hr) was 6.2% and the “S-isomer (Compound 1) amount in percent (relative to compound 1+compound 2)” value ([2]; Acetate Buffer, pH 3.5, 2 mg/ml, 3 hr) was 9.3%. For the same compound, the “S-isomer (Compound 1) amount in percent (relative to compound 1+compound 2)” value ([2]; Acetate Buffer, pH 3.5, 2 mg/ml, 4 hr) was 12.1%, the “S-isomer (Compound 1) amount in percent (relative to compound 1+compound 2)” value ([2]; Acetate Buffer, pH 4.0, 2 mg/ml, 0 hr) was 0.2% and the “S-isomer (Compound 1) amount in percent (relative to compound 1+compound 2)” value ([2]; Acetate Buffer, pH 4.0, 2 mg/ml, 1 hr) was 7.7%. For the same compound, the “S-isomer (Compound 1) amount in percent (relative to compound 1+compound 2)” value ([2]; Acetate Buffer, pH 4.0, 2 mg/ml, 2 hr) was 15.2%, the “S-isomer (Compound 1) amount in percent (relative to compound 1+compound 2)” value ([2]; Acetate Buffer, pH 4.0, 2 mg/ml, 3 hr) was 22.1% and the “S-isomer (Compound 1) amount in percent (relative to compound 1+compound 2)” value ([2]; Acetate Buffer, pH 4.0, 2 mg/ml, 4 hr) was 27.2%. For the same compound, the “S-isomer (Compound 1) amount in percent (relative to compound 1+compound 2)” value ([2]; Acetate Buffer, pH 5.0, 2 mg/ml, 0 hr) was 0.2%, the “S-isomer (Compound 1) amount in percent (relative to compound 1+compound 2)” value ([2]; Acetate Buffer, pH 5.0, 2 mg/ml, 1 hr) was 6.3% and the “S-isomer (Compound 1) amount in percent (relative to compound 1+compound 2)” value ([2]; Acetate Buffer, pH 5.0, 2 mg/ml, 2 hr) was 14.6%. For the same compound, the “S-isomer (Compound 1) amount in percent (relative to compound 1+compound 2)” value ([2]; Acetate Buffer, pH 5.0, 2 mg/ml, 3 hr) was 19.0%, the “S-isomer (Compound 1) amount in percent (relative to compound 1+compound 2)” value ([2]; Acetate Buffer, pH 5.0, 2 mg/ml, 4 hr) was 25.3% and the “S-isomer (Compound 1) amount in percent (relative to compound 1+compound 2)” value ([2]; Acetate Buffer, pH 5.5, 2 mg/ml, 0 hr) was 0.2%. The “S-isomer (Compound 1) amount in percent (relative to compound 1+compound 2)” value ([2]; Acetate Buffer, pH 5.5, 2 mg/ml, 1 hr) was 4.7%, the “S-isomer (Compound 1) amount in percent (relative to compound 1+compound 2)” value ([2]; Acetate Buffer, pH 5.5, 2 mg/ml, 2 hr) was 8.2% and the “S-isomer (Compound 1) amount in percent (relative to compound 1+compound 2)” value ([2]; Acetate Buffer, pH 5.5, 2 mg/ml, 3 hr) was 12.4%. For the same compound, the “S-isomer (Compound 1) amount in percent (relative to compound 1+compound 2)” value ([2]; Acetate Buffer, pH 5.5, 2 mg/ml, 4 hr) was 16.4%, the “Percent racemization (relative to compound 1 + compound 2)” value ([2]; PBS, pH 7.4, 2 mg/ml, 0 hours) was 0.4% and the “Percent racemization (relative to compound 1 + compound 2)” value ([2]; PBS, pH 7.4, 2 mg/ml, 1 hour) was 7.2%. For the same compound, the “Percent racemization (relative to compound 1 + compound 2)” value ([2]; PBS, pH 7.4, 2 mg/ml, 2 hours) was 12.3%, the “Percent racemization (relative to compound 1 + compound 2)” value ([2]; PBS, pH 7.4, 2 mg/ml, 3 hours) was 15.0% and the “Percent racemization (relative to compound 1 + compound 2)” value ([2]; PBS, pH 7.4, 2 mg/ml, 4 hours) was 17.9%. The “Percent racemization (relative to compound 1 + compound 2)” value ([2]; PBS, pH 7.4, 2 mg/ml, 21 hours) was 47.0%, the “Percent racemization (relative to compound 1 + compound 2)” value ([2]; Purified water, 2 mg/ml, 0 hours) was 0.4% and the “Percent racemization (relative to compound 1 + compound 2)” value ([2]; Purified water, 2 mg/ml, 1 hour) was 3.8%. The “Percent racemization (relative to compound 1 + compound 2)” value ([2]; Purified water, 2 mg/ml, 2 hours) was 7.2%, the “Percent racemization (relative to compound 1 + compound 2)” value ([2]; Purified water, 2 mg/ml, 3 hours) was 10.3% and the “Percent racemization (relative to compound 1 + compound 2)” value ([2]; Purified water, 2 mg/ml, 4 hours) was 13.9%. The “Percent racemization (relative to compound 1 + compound 2)” value ([2]; Purified water, 2 mg/ml, 21 hours) was 38.2%, the “racemization in various aqueous solvents” value ([2]; various aqueous solvents) was “undergoes racemization” and the “% Inflamation (Diff/Base line * 100)” value [1, 3] was 71.13%. The “% Inhibition” value [1, 3] was 39.39%, the Difference mm [1, 3] was 0.17 mm and the “% Inflamation (Diff/Base line * 100)” value [1, 4] was 41.68%. For the same compound, the “% Inhibition” value [1, 4] was 62.12%, the Difference mm [1, 4] was 0.11 mm and the “% Inflamation (Diff/Base line * 100)” value [1, 5] was 50.31%. The “% Inhibition” value [1, 5] was 55.71%, the Difference mm [1, 5] was 0.13 mm and the “% Inflamation (Diff/Base line * 100)” value [1, 6] was 35.01%. For the same compound, the “% Inhibition” value [1, 6] was 68.53%, the Difference mm [1, 6] was 0.09 mm and the inhibition of inflammation [1] was “provide inhibition of inflammation”. For the same compound, the pKa (pKa of the compound) was 4.2.
With `C[C@@H]1C[C@H]2[C@@H]3CCC4=CC(=O)C=C[C@]4(C)[C@@]3(F)[C@@H](O)C[C@]2(C)[C@@]1(O)C(=O)CO` [dexamethasone, Dexamethasone, reference compound] the “% Inflamation (Diff/Base line * 100)” value [1, 7] was 22.62%, the “% Inhibition” value [1, 7] was 80.42% and the Difference mm [1, 7] was 0.06 mm.
